According to US9884063B2, “Amido-substituted azole compounds” (Bayer Pharma Aktiengesellschaft, priority 2014, dated 2018):

Test system: wildtype Wnt signaling cascade
Test: HEK293 TOP Assay (Super TopFlash luciferase reporter, Wnt-3a stimulated)
Assay type: cell-based
Settings: Homo sapiens, HEK293, 16 h, HEK293 TOP reporter cell line, Wnt-3a at EC50, 16 hours incubation, compound dilution series 50 μM to 15 nM
Protocol: In order to discover and characterize small molecules which inhibit the wildtype Wnt pathway, a cellular reporter assay was employed. The corresponding assay cell was generated by transfection of the mammalian cell line HEK293 (ATCC, #CRL-1573) with the Super TopFlash vector (Morin, Science 275, 1997, 1787-1790; Molenaar et al., Cell 86 (3), 1996, 391-399). The HEK293 cell line is cultivated at 37° C. and 5% CO2 in DMEM (Life Technologies, #41965-039), supplemented with 2 mM glutamine, 20 mM HEPES, 1.4 mM pyruvate, 0.15% Na-bicarbonate and 10% foetal bovine serum (GIBCO, #10270). Stable transfectants were generated by selection with 300 μg/ml Hygromycin.
In preparation of the assay, the two cell lines were plated 24 hrs before beginning the test at 10000 cells per well in a 384 micro titre plate (MTP) in 30 μl growth medium. […] The recombinant human Wnt-3a was thereby applied between 2500 and 5 ng/ml in two-fold dilution steps.
Selective inhibitory activity for small molecules on the wildtype Wnt pathway was determined after parallel incubation of both (TOP and FOP) HEK293 reporter cell lines with a compound dilution series from 50 μM to 15 nM in steps of 3.16-fold dilutions in CAFTY buffer (130 mM sodium chloride, 5 mM potassium chloride, 20 mM HEPES, 1 mM magnesium chloride, 5 mM sodium bicarbonate, pH 7.4) containing 2 mM Ca^2+ and 0.01% BSA.
The compounds were thereby serially prediluted in 100% DMSO and thereafter 50 fold into the CAFTY compound dilution buffer (described above).

Structure (SMILES)	IC50 [µM]
COC(=O)c1nc[nH]c1C(=O)Nc1ccc(NC(=O)c2ccc(F)cc2)c(F)c1 [Example 75, methyl-5-({3-fluoro-4-[(4-fluorobenzoyl)amino]phenyl}carbamoyl)-1H-imidazole-4-carboxylate]	13
CNC(=O)c1nc[nH]c1C(=O)Nc1ccc(NC(=O)c2ccnc(Cl)c2)cc1 [Example 351, N^5-(4-{[(2-chloropyridin-4-yl)carbonyl]amino}phenyl)-N^4-methyl-1H-imidazole-4,5-dicarboxamide]	12.5
CNC(=O)c1nc[nH]c1C(=O)Nc1ccc(NC(=O)c2cccc(C(F)(F)F)c2Cl)cc1 [Example 358, N^5-(4-{[2-chloro-3-(trifluoromethyl)benzoyl]amino}phenyl)-N^4-methyl-1H-imidazole-4,5-dicarboxamide]	4.1
CNC(=O)c1nc[nH]c1C(=O)Nc1ccc(NC(=O)c2ccno2)cc1 [Example 354, N^4-methyl-N^5-{4-[(1,2-oxazol-5-ylcarbonyl)amino]phenyl}-1H-imidazole-4,5-dicarboxamide]	50
CNC(=O)c1nc[nH]c1C(=O)Nc1ccc(NC(=O)c2ccc(F)c(F)c2)cc1 [Example 320, N^5-{4-[(3,4-difluorobenzoyl)amino]phenyl}-N^4-methyl-1H-imidazole-4,5-dicarboxamide]	4.8
CNC(=O)c1nc[nH]c1C(=O)Nc1ccc(NC(=O)c2ccn(C)n2)cc1 [Example 332, N^4-methyl-N^5-(4-{[(1-methyl-1H-pyrazol-3-yl)carbonyl]amino}phenyl)-1H-imidazole-4,5-dicarboxamide]	9.65
CNC(=O)c1nc[nH]c1C(=O)Nc1ccc(NC(=O)c2ccc(C)c(F)c2)cc1 [Example 328, N^5-{4-[(3-fluoro-4-methylbenzoyl)amino]phenyl}-N^4-methyl-1H-imidazole-4,5-dicarboxamide]	5.25
CN(C)C(=O)c1[nH]cnc1C(=O)Nc1ccc(NC(=O)c2ccc(F)cc2)cc1 [Example 144, N^4-{4-[(4-fluorobenzoyl)amino]phenyl}-N^5,N^5-dimethyl-1H-imidazole-4,5-dicarboxamide]	50
CN1CCN(NC(=O)c2[nH]cnc2C(=O)Nc2ccc(NC(=O)c3ccc(F)cc3)cc2)CC1 [Example 193, N^4-{4-[(4-fluorobenzoyl)amino]phenyl}-N^5-(4-methylpiperazin-1-yl)-1H-imidazole-4,5-dicarboxamide]	5.7
CN1CCN(CCNC(=O)c2[nH]cnc2C(=O)Nc2ccc(NC(=O)c3ccc(F)cc3)cc2)CC1 [Example 161, N^4-{4-[(4-fluorobenzoyl)amino]phenyl}-N^5-[2-(4-methylpiperazin-1-yl)ethyl]-1H-imidazole-4,5-dicarboxamide]	36.5
CN1CCN(CCCNC(=O)c2[nH]cnc2C(=O)Nc2ccc(NC(=O)c3ccc(F)cc3)cc2)CC1 [Example 181, N^4-{4-[(4-fluorobenzoyl)amino]phenyl}-N^5-[3-(4-methylpiperazin-1-yl)propyl]-1H-imidazole-4,5-dicarboxamide]	6.7
CN1CCN(CCCNC(=O)c2[nH]cnc2C(=O)Nc2ccc(NC(=O)c3ccccc3Cl)cc2)CC1 [Example 192, N^4-{4-[(2-chlorobenzoyl)amino]phenyl}-N^5-[3-(4-methylpiperazin-1-yl)propyl]-1H-imidazole-4,5-dicarboxamide]	0.46
CNC(=O)c1nc[nH]c1C(=O)Nc1ccc(NC(=O)c2cc(F)cc(Cl)c2)cc1 [Example 360, N^5-{4-[(3-chloro-5-fluorobenzoyl)amino]phenyl}-N^4-methyl-1H-imidazole-4,5-dicarboxamide]	15.2
CNC(=O)c1nc[nH]c1C(=O)Nc1ccc(NC(=O)c2ccc(F)cc2)c(C)c1 [Example 91, N^5-{4-[(4-fluorobenzoyl)amino]-3-methylphenyl}-N^4-methyl-1H-imidazole-4,5-dicarboxamide]	44.5
Cc1cc(NC(=O)c2[nH]cnc2C(=O)NCCN(C)C)ccc1NC(=O)c1ccccc1Cl [Example 88, N^5-{4-[(2-chlorobenzoyl)amino]-3-methylphenyl}-N^4-[2-(dimethylamino)ethyl]-1H-imidazole-4,5-dicarboxamide]	2.4
CNC(=O)c1nc[nH]c1C(=O)Nc1ccc(NC(=O)c2cc(F)cc(C#N)c2)cc1 [Example 371, N^5-{4-[(3-cyano-5-fluorobenzoyl)amino]phenyl}-N^4-methyl-1H-imidazole-4,5-dicarboxamide]	50
CNC(=O)c1nc[nH]c1C(=O)Nc1ccc(NC(=O)c2cccc(F)c2C)cc1 [Example 324, N^5-{4-[(3-fluoro-2-methylbenzoyl)amino]phenyl}-N^4-methyl-1H-imidazole-4,5-dicarboxamide]	3.2
CNC(=O)c1nc[nH]c1C(=O)Nc1ccc(NC(=O)c2ccoc2)cc1 [Example 312, N^5-{4-[(furan-3-ylcarbonyl)amino]phenyl}-N^4-methyl-1H-imidazole-4,5-dicarboxamide]	50
CNC(=O)c1nc[nH]c1C(=O)Nc1ccc(NC(=O)c2ccc(Cl)cc2OC)cc1 [Example 310, N^5-{4-[(4-chloro-2-methoxybenzoyl)amino]phenyl}-N^4-methyl-1H-imidazole-4,5-dicarboxamide]	10.5
CNC(=O)c1nc[nH]c1C(=O)Nc1ccc(NC(=O)c2cccc(OC)c2F)cc1 [Example 365, N^5-{4-[(2-fluoro-3-methoxybenzoyl)amino]phenyl}-N^4-methyl-1H-imidazole-4,5-dicarboxamide]	50
CNC(=O)c1nc[nH]c1C(=O)Nc1ccc(NC(=O)c2c(F)ccc(F)c2F)cc1 [Example 323, N^4-methyl-N^5-{4-[(2,3,6-trifluorobenzoyl)amino]phenyl}-1H-imidazole-4,5-dicarboxamide]	1.45
O=C(Nc1ccc(NC(=O)c2nc[nH]c2C(=O)NCC(F)F)cc1)c1ccc(F)cc1 [Example 141, N^5-(2,2-difluoroethyl)-N^4-{4-[(4-fluorobenzoyl)amino]phenyl}-1H-imidazole-4,5-dicarboxamide]	3
CC(C)(CN1CCOCC1)NC(=O)c1[nH]cnc1C(=O)Nc1ccc(NC(=O)c2ccccc2Cl)cc1 [Example 154, N^4-{4-[(2-chlorobenzoyl)amino]phenyl}-N^5-[2-methyl-1-(morpholin-4-yl)propan-2-yl]-1H-imidazole-4,5-dicarboxamide]	1.25
O=C(Nc1ccc(NC(=O)c2nc[nH]c2C(=O)NCCF)cc1)c1ccc(F)cc1 [Example 174, N^4-{4-[(4-fluorobenzoyl)amino]phenyl}-N^5-(2-fluoroethyl)-1H-imidazole-4,5-dicarboxamide]	1.05
CNC(=O)c1nc[nH]c1C(=O)Nc1ccc(NC(=O)c2ccc(OC)cc2)cc1 [Example 304, N^5-{4-[(4-methoxybenzoyl)amino]phenyl}-N^4-methyl-1H-imidazole-4,5-dicarboxamide]	11.4
CC(CNC(=O)c1[nH]cnc1C(=O)Nc1ccc(NC(=O)c2ccc(F)cc2)cc1)N1CCN(C)CC1 (stereo not drawn) [Example 205, N^4-{4-[(4-fluorobenzoyl)amino]phenyl}-N^5-[2-(4-methylpiperazin-1-yl)propyl]-1H-imidazole-4,5-dicarboxamide]	2.65
CNC(=O)c1nc[nH]c1C(=O)Nc1ccc(NC(=O)c2ccc(F)c(C)c2)cc1 [Example 373, N^5-{4-[(4-fluoro-3-methylbenzoyl)amino]phenyl}-N^4-methyl-1H-imidazole-4,5-dicarboxamide]	4.2
